Holding throughout (type): cell-based
The subject of experiment [1] is H. influenzae (ATCC 49247). Description: Antibacterial susceptibility testing (MIC, broth microdilution or agar dilution), H. influenzae. The settings on record: Haemophilus influenzae, ATCC49247; read-out: H. influenzae (ATCC 49247) minimal inhibitory concentration (MIC). The method, then: (§1) Compounds of the invention were tested for antimicrobial activity by susceptibility testing in liquid or on solid media. MICs for compounds against each strain were determined by the broth microdilution or agar dilution method according to the guidelines of the Clinical Laboratories and Standards Institute, formerly the National Committee for Clinical Laboratory Standards (Clinical Laboratories and Standards Institute. Methods for Dilution Antimicrobial Susceptibility Tests for Bacteria That Grow Aerobically; Approved Standard—Seventh Edition. Document M7-A7. CLSI, Wayne, Pa., 2006; Clinical Laboratories and Standards Institute. The Gram positive bacterial strains tested include S. aureus (Staphylococcus aureus (Isolate ID ATCC 29213)), E. faecalis (Enterococcus faecalis (Isolate ID ATCC 29212)) and S. pyogenes (Streptococcus pyogenes (Isolate ID ATCC 51339)). The Gram negative bacterial strains tested include H. influenzae (Haemophilus influenzae (Isolate ID ATCC 49247)).

Another experiment deals with S. pyogenes (ATCC 51339). The experiment in a line: Antibacterial susceptibility testing (MIC, broth microdilution or agar dilution), S. pyogenes. Particulars: Streptococcus pyogenes, ATCC51339; read-out: S. pyogenes (ATCC 51339) minimal inhibitory concentration (MIC). Summed up:
(§2)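 MICs by CLSI (M7-A7) broth microdilution or agar dilution, against reference ATCC strains as listed.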
A general note: In broth dilution the organism is exposed to a series of concentrations in liquid medium.

The next experiment relates to S. aureus (ATCC 29213). Description: Antibacterial susceptibility testing (MIC, broth microdilution or agar dilution), S. aureus. The settings on record: Staphylococcus aureus, ATCC29213; read-out: S. aureus (ATCC 29213) minimal inhibitory concentration (MIC). Summed up: as §2
The subject of a further experiment is E. faecalis (ATCC 29212). Description: Antibacterial susceptibility testing (MIC, broth microdilution or agar dilution), E. faecalis. The settings on record: Enterococcus faecalis, ATCC29212; read-out: E. faecalis (ATCC 29212) minimal inhibitory concentration (MIC). On the procedure:
as §1

SMILES strings stand for the structures. Values after ≈ are worked out from the molar mass of the structure shown. Bounds are passed on as bounds.

For the compound `CCNC(=O)Nc1cc(Nc2ccccc2)c(C(=O)Nc2ccnc(C)c2)cn1` [Compound 90, 6-(3-ethylureido)-N-(2-methylpyridin-4-yl)-4-(phenylamino)nicotinamide], the MIC in experiment [1] is 8 µg/mL (≈ 20.5 µM); with S. pyogenes (ATCC 51339), no more than 1 µg/mL; in the experiment with S. aureus (ATCC 29213), no more than 1 µg/mL.

With `CCNC(=O)Nc1cc(Nc2ccccc2)c(C(=O)Nc2cc(C(=O)O)n(C)c2)cn1` [Compound 103, 4-(6-(3-ethylureido)-4-(phenylamino)nicotinamido)-1-methyl-1H-pyrrole-2-carboxylic acid], the MIC in experiment [1] is 4 µg/mL (≈ 9.47 µM); with S. pyogenes (ATCC 51339), no more than 1 µg/mL; in the experiment on S. aureus (ATCC 29213), 4 µg/mL (≈ 9.47 µM).

Take `CCNC(=O)Nc1cc(Nc2ccccc2)c(C(=O)Nc2ccc(CCC(=O)N(C)OC)cc2)cn1` [Compound 123, 6-(3-Ethylureido)-N-(4-(3-(methoxy(methyl)amino)-3-oxopropyl)phenyl)-4-(phenylamino)nicotinamide]: the MIC in experiment [1] was 8 µg/mL (≈ 16.3 µM); in the experiment with S. pyogenes (ATCC 51339), no more than 1 µg/mL; in the experiment with S. aureus (ATCC 29213) it was no more than 1 µg/mL.

As for `CCNC(=O)Nc1cc(Nc2ccccc2)c(C(=O)Nc2ccc(CC(C)(C)C(=O)O)cc2)cn1` [Compound 130, 3-(4-(6-(3-ethylureido)-4-(phenylamino)nicotinamido)phenyl)-2,2-dimethylpropanoic acid], the MIC is 4 µg/mL (≈ 8.41 µM) in experiment [1], no more than 1 µg/mL with S. pyogenes (ATCC 51339) and no more than 1 µg/mL in the experiment with S. aureus (ATCC 29213).

As for `CCNC(=O)Nc1cc(Nc2cccc(F)c2)c(C(=O)Nc2ccc(CC(C)(C)C(=O)O)cc2)cn1` [Compound 181, 3-{4-[({6-[(ethylcarbamoyl)amino]-4-[(3-fluorophenyl)amino]pyridin-3-yl}carbonyl)amino]phenyl}-2,2-dimethylpropanoic acid], the MIC (in experiment [1]; in the experiment on S. pyogenes (ATCC 51339); in the experiment with E. faecalis (ATCC 29212); in the experiment with S. aureus (ATCC 29213)) was no more than 1 µg/mL throughout.

For the compound `CCNC(=O)Nc1cc(Nc2ccnc(OC)c2)c(C(=O)Nc2ccc(CC(C)(C)C(=O)O)cc2)cn1` [Compound 187, 3-{4-[({6-[(ethylcarbamoyl)amino]-4-[(2-methoxypyridin-4-yl)amino]pyridin-3-yl}carbonyl)amino]phenyl}-2,2-dimethylpropanoic acid], the MIC (in experiment [1]; in the experiment on E. faecalis (ATCC 29212); with S. aureus (ATCC 29213)) was no more than 1 µg/mL throughout.

Turning to `CCNC(=O)Nc1cc(Nc2ccc(C#N)cc2)c(C(=O)Nc2ccc(CC(C)(C)C(=O)O)cc2)cn1` [Compound 188, 3-{4-[({4-[(4-cyanophenyl)amino]-6-[(ethylcarbamoyl)amino]pyridin-3-yl}carbonyl)amino]phenyl}-2,2-dimethylpropanoic acid], the MIC (in experiment [1]; with S. pyogenes (ATCC 51339); with E. faecalis (ATCC 29212); in the experiment with S. aureus (ATCC 29213)) was no more than 1 µg/mL throughout.

Take `CCNC(=O)Nc1cc(Nc2cc(F)c(F)c(F)c2)c(C(=O)Nc2ccc(CCC(=O)O)cc2)cn1` [Compound 189]: the MIC (in experiment [1]; in the experiment on S. pyogenes (ATCC 51339); in the experiment on E. faecalis (ATCC 29212); in the experiment with S. aureus (ATCC 29213)) was no more than 1 µg/mL each time.

Regarding `CCNC(=O)Nc1cc(Nc2ccc(C(=O)OC)cc2)c(C(=O)Nc2ccc(CC(C)(C)C(=O)O)cc2)cn1` [Compound 196], the MIC (in experiment [1]; in the experiment on S. pyogenes (ATCC 51339); in the experiment with E. faecalis (ATCC 29212); with S. aureus (ATCC 29213)) was no more than 1 µg/mL in each case.

As for `CCNC(=O)Nc1cc(Nc2ccccc2)c(C(=O)Nc2ccc(-n3cccc3C(=O)O)cc2)cn1` [Compound 198, 1-{4-[({6-[(ethylcarbamoyl)amino]-4-(phenylamino)pyridin-3-yl}carbonyl)amino]phenyl}-1H-pyrrole-2-carboxylic acid], the MIC in experiment [1] was 4 µg/mL (≈ 8.26 µM); in the experiment with E. faecalis (ATCC 29212), no more than 1 µg/mL; in the experiment on S. aureus (ATCC 29213), 8 µg/mL (≈ 16.5 µM).

Take `CCNC(=O)Nc1cc(Nc2cccc(C#N)c2)c(C(=O)Nc2ccc(CC(C)(C)C(=O)O)cc2)cn1` [Compound 199, 3-{4-[({4-[(3-cyanophenyl)amino]-6-[(ethylcarbamoyl)amino]pyridin-3-yl}carbonyl)amino]phenyl}-2,2-dimethylpropanoic acid]: the MIC in experiment [1] was 2 µg/mL (≈ 4 µM); in the experiment on E. faecalis (ATCC 29212), no more than 1 µg/mL; in the experiment on S. aureus (ATCC 29213), 2 µg/mL (≈ 4 µM).

For `CCNC(=O)Nc1cc(Nc2ccc(C#N)cc2)c(C(=O)Nc2ccc(CN3CCOCC3)cc2)cn1` [Compound 204, 4-[(4-cyanophenyl)amino]-6-[(ethylcarbamoyl)amino]-N-[4-(morpholin-4-ylmethyl)phenyl]pyridine-3-carboxamide], the figures for the MIC (in experiment [1]; in the experiment on E. faecalis (ATCC 29212); in the experiment on S. aureus (ATCC 29213)) were 4 µg/mL (≈ 8.01 µM), no more than 1 µg/mL and no more than 1 µg/mL, respectively.

Consider `CCNC(=O)Nc1cc(Nc2ccccc2)c(C(=O)Nc2ccc(CS(=O)(=O)NC)cc2)cn1` [Compound 210, 6-[(ethylcarbamoyl)amino]-N-{4-[(methylsulfamoyl)methyl]phenyl}-4-(phenylamino)pyridine-3-carboxamide], for which the MIC in experiment [1] was 4 µg/mL (≈ 8.29 µM); with E. faecalis (ATCC 29212) it was no more than 1 µg/mL; with S. aureus (ATCC 29213), 2 µg/mL (≈ 4.14 µM).

In the case of `CCNC(=O)Nc1cc(Nc2ccc(C)c(F)c2)c(C(=O)Nc2ccc(CCC(=O)O)cc2)cn1` [Compound 222, 3-{4-[({6-[(ethylcarbamoyl)amino]-4-[(3-fluoro-4-methylphenyl)amino]pyridin-3-yl}carbonyl)amino]phenyl}propanoic acid], the MIC (in experiment [1]; in the experiment with E. faecalis (ATCC 29212); with S. aureus (ATCC 29213)) was no more than 1 µg/mL in each case.

For the compound `CCNC(=O)Nc1cc(Nc2ccc(F)c(C)c2)c(C(=O)Nc2ccc(CCC(=O)O)cc2)cn1` [Compound 223, 3-{4-[({6-[(ethylcarbamoyl)amino]-4-[(4-fluoro-3-methylphenyl)amino]pyridin-3-yl}carbonyl)amino]phenyl}propanoic acid], the MIC (in experiment [1]; in the experiment on E. faecalis (ATCC 29212); in the experiment on S. aureus (ATCC 29213)) was no more than 1 µg/mL in each case.

As for `CCNC(=O)Nc1cc(Nc2ccc(F)cc2F)c(C(=O)Nc2ccc(CCC(=O)O)cc2)cn1` [Compound 230, 3-{4-[({4-[(2,4-difluorophenyl)amino]-6-[(ethylcarbamoyl)amino]pyridin-3-yl}carbonyl)amino]phenyl}propanoic acid], the MIC (in experiment [1]; in the experiment with E. faecalis (ATCC 29212); in the experiment on S. aureus (ATCC 29213)) was no more than 1 µg/mL each time.

As to `CCNC(=O)Nc1cc(Nc2ccccc2)c(C(=O)Nc2ccc(S(N)(=O)=O)cc2)cn1` [Compound 231, 6-[(ethylcarbamoyl)amino]-4-(phenylamino)-N-(4-sulfamoylphenyl)pyridine-3-carboxamide], the MIC is 4 µg/mL (≈ 8.8 µM) in experiment [1], no more than 1 µg/mL in the experiment with E. faecalis (ATCC 29212) and 4 µg/mL (≈ 8.8 µM) with S. aureus (ATCC 29213).

As to `CCNC(=O)Nc1cc(Nc2ccccc2)c(C(=O)Nc2ccc(NS(C)(=O)=O)cc2)cn1` [Compound 232, 6-[(ethylcarbamoyl)amino]-N-{4-[(methylsulfonyl)amino]phenyl}-4-(phenylamino)pyridine-3-carboxamide], the MIC was 4 µg/mL (≈ 8.54 µM) in experiment [1], no more than 1 µg/mL in the experiment on E. faecalis (ATCC 29212) and 2 µg/mL (≈ 4.27 µM) with S. aureus (ATCC 29213).

On to `CCNC(=O)Nc1cc(Nc2cncc(F)c2)c(C(=O)Nc2ccc(CCC(=O)O)cc2)cn1` [Compound 236], for which the MIC is 4 µg/mL (≈ 8.57 µM) in experiment [1], no more than 1 µg/mL in the experiment on E. faecalis (ATCC 29212) and 4 µg/mL (≈ 8.57 µM) in the experiment with S. aureus (ATCC 29213).

Regarding `CCNC(=O)Nc1cc(Nc2cccc(S(F)(F)(F)(F)F)c2)c(C(=O)Nc2ccc(CCC(=O)O)cc2)cn1` [Compound 237, 3-(4-{[(6-[(ethylcarbamoyl)amino]-4-{[3-(pentafluorothio)phenyl]amino}pyridin-3-yl)carbonyl]amino}phenyl)propanoic acid], the values for the MIC (in experiment [1]; with E. faecalis (ATCC 29212); with S. aureus (ATCC 29213)) were 2 µg/mL (≈ 3.49 µM), no more than 1 µg/mL and no more than 1 µg/mL, respectively.

As to `CCNC(=O)Nc1cc(Nc2cc(F)cc(F)c2)c(C(=O)Nc2ccc(C3CC3C(=O)O)cc2)cn1` (stereo not shown) [Compound 238, 2-{4-[({4-[(3,5-difluorophenyl)amino]-6-[(ethylcarbamoyl)amino]pyridin-3-yl}carbonyl)amino]phenyl}cyclopropanecarboxylic acid], the MIC (in experiment [1]; with E. faecalis (ATCC 29212); in the experiment on S. aureus (ATCC 29213)) was no more than 1 µg/mL in each case.

In the case of `CCNC(=O)Nc1cc(Nc2cc(F)cc(F)c2)c(C(=O)Nc2ccc(CC(C)(C)C(=O)O)cc2)cn1` [Compound 239, 3-{4-[({4-[(3,5-difluorophenyl)amino]-6-[(ethylcarbamoyl)amino]pyridin-3-yl}carbonyl)amino]phenyl}-2,2-dimethyl propanoic acid], the MIC (in experiment [1]; in the experiment on E. faecalis (ATCC 29212); with S. aureus (ATCC 29213)) was no more than 1 µg/mL in each case.

For `CCNC(=O)Nc1cc(Nc2cccc(C(F)(F)F)c2)c(C(=O)Nc2ccc(CCC(=O)O)cc2)cn1` [Compound 240, 3-(4-{[(6-[(ethylcarbamoyl)amino]-4-{[3-(trifluoromethyl)phenyl]amino}pyridin-3-yl)carbonyl]amino}phenyl)propanoic acid], the MIC (in experiment [1]; with E. faecalis (ATCC 29212); in the experiment with S. aureus (ATCC 29213)) was no more than 1 µg/mL each time.

Values taken from patent US9060515B2, “Heterocyclic urea compounds” (BIOTA EUROPE LTD, priority 2011, dated 2015).
